What was measured:
[1] = molecular target: T1, Pancreatic triacylglycerol lipase (Homo sapiens) (UniProt P16233)
T1 sequence (whole entry): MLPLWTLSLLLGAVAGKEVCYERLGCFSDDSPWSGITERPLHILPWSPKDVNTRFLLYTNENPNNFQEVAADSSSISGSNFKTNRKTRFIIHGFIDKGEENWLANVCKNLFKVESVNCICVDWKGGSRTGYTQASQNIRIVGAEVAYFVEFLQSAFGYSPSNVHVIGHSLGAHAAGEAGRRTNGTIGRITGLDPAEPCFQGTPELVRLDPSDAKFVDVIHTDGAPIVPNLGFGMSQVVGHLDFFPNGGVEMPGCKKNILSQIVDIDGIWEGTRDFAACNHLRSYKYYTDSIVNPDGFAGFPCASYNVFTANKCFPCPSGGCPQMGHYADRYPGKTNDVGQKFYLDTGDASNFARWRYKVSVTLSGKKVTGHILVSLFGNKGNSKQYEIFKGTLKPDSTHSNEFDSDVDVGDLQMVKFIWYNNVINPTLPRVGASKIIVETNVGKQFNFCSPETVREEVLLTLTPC
Description: Binding affinity to pancreatic lipase (unknown origin) assessed as Stem-Volmer quenching constant by fluorescence quenching based spectrophotometer analysis

[2] = molecular target: T1, Pancreatic triacylglycerol lipase (Homo sapiens); remark: listed apart in the source
Description: Binding affinity to pancreatic lipase (unknown origin) assessed as quenching constant by fluorescence quenching based spectrophotometer analysis

[3] = molecular target: T2, Pancreatic triacylglycerol lipase (Homo sapiens, UniProt P16233); experiment: Inhibition of pancreatic lipase (unknown origin) by spectrophotometeric analysis
T2 sequence (P16233 whole entry): T1 sequence (whole entry)

Question: Which KSV [1] does the source give for O=C1/C(=C/c2ccccc2)Oc2cc(O)cc(O)c21 here?
Answer: 7.16 10^4L/mol

Question: What about the Kq [2] of the same compound?
Answer: 4.5 10^13L/mol/s

Question: What about the IC50 [3] of the same compound?
Answer: 58.8 µM

Question: Which KSV [1] does the source give for O=c1c(O)c(-c2ccc(O)c(O)c2)oc2cc(O)cc(O)c12 here?
Answer: 13.3 10^4L/mol

Question: What about the Kq [2] of the same compound?
Answer: 8.35 10^13L/mol/s

Source: ChEMBL document CHEMBL5356957, “Design, synthesis, biological evaluation and molecular docking of alkoxyaurones as potent pancreatic lipase inhibitors” (Bioorg Med Chem Lett, 2024)
